Where “and” joins values, the source holds several entries; their conditions need not be identical. Equal entries are not always repeated.
What was measured:
in vitro [1] = conditions: human, Caco-2
[2] = molecular target: T1, recombinant human CYP3A4-POR containing cytochrome b5 (Homo sapiens, UniProt P08684); experiment: Midazolam CLint by canonical recombinant CYP3A4-POR with cytochrome b5, with and without gefitinib; type: in vitro ADME; conditions: CYP3A4_POR, NADPH, listed as Mid
T1 construct: purchased BioIVT (named in b64 for the custom bactosomes); host or cells: bactosomes (E. coli is stated for the panel, not for this product)
T1 sequence (P08684 whole entry): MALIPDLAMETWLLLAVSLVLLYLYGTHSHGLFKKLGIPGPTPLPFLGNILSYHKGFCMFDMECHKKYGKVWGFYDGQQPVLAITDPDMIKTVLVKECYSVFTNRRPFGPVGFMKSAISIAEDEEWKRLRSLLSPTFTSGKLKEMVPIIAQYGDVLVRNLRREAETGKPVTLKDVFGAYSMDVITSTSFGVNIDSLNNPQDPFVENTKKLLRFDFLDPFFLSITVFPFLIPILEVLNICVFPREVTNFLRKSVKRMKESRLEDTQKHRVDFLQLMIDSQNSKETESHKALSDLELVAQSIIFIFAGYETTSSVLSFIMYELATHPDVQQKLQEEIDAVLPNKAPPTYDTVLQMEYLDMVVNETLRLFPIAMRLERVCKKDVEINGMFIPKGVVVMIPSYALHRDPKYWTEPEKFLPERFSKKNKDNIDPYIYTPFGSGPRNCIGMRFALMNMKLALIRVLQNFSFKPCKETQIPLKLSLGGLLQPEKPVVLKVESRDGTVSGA
Method: (§1) As the reaction-rate was much higher, aliquots were taken at 0, 1, 2, 3, 4 and 5 min.

[3] = CLint in NADPH-supplemented human liver microsomes; conditions: for microsomal CLint at 1 µM / CLint scaled at 1 µM: human, microsomes
Method: (§2) Calculation and scaling of CLint,u was done using the equation below and 45 mg of microsomal protein per gram of liver. HLMCLint,u=ln2/x1/t1/2(min)xmLincubation/mgmicrosomalproteinx45mgmicrosomalprotein/gliverx21gliver/kg/Fuinc

[4] = molecular target: T2, recombinant human CYP3A4-Cytb5R containing cytochrome b5 (Homo sapiens, UniProt P08684); experiment: Midazolam CLint by non-canonical recombinant CYP3A4-Cytb5R with cytochrome b5, with and without gefitinib; type: in vitro ADME; conditions: CYP3A4_Cytb5R, NADPH, listed as Mid
T2 construct: purchased BioIVT (custom synthesis) CE00001(CYP3A4), batch CPD034-3A4; host or cells: bactosomes
T2 sequence (P08684 whole entry): as above
Method: As commercial recombinant human CYPs co-express the individual CYP and reductase with an option to include cytochrome b5. A custom synthesis co-expressing CYP3A4 or CYP1A2 and Cytb5R plus cytochrome b5 was, therefore, ordered from BioIVT and the bactosomes were compared with canonical CYP-POR enzymes plus cytochrome b5.
as §1

[5] = CLint in NADH-supplemented human liver microsomes; conditions: for microsomal CLint at 1 µM / CLint scaled at 1 µM: human, microsomes
Method: as §2

[6] = Incubations in human liver S9 + NADPH (same donor pool as HLM); type: in vitro ADME; conditions: human, human liver S9, pH 7.4, Midazolam CLint
[7] = Free fraction in HLM incubation, equilibrium dialysis; type: in vitro ADME, human; conditions: fraction unbound, measured or estimated by in silico models of Fuinc
[8] = Midazolam CLint in HLM with NADPH:NADH (1:1); type: in vitro ADME, human; conditions: cofactor NADH:NADPH (1:1) (Fig. 5b)
rat hepatocytes = experiment: Free fraction in rat hepatocytes as surrogate for HH, equilibrium dialysis; type: in vitro ADME; conditions: fraction unbound, measured or estimated by in silico models of Fuinc
in vitro [9] = conditions: human, hepatocytes
Method: Cryopreserved HH prepared from a mixed-gender pool of twenty donors (product X008000, lot EEO, BIOIVT), ten-donors (product S01205, lot MTJ, BIOIVT), ten donors (product S01205 lot LYB, BIOIVT) were utilised in the experiments. Cryopreserved HH were rapidly thawed in a water bath set at 37 °C and added to Leibovitz media that had been pre-warmed in the water bath. The suspension of cells was mixed gently and centrifuged at 40 × g for 4 min at room temperature. Excess media was removed, and the cells were re-suspended in 5 mL of fresh Leibovitz media. The cells were counted using an automated cell counter (Cellometer).

[10] = Incubations in HLM + NADPH from the same donor pool as S9; type: in vitro ADME, human; conditions: for microsomal CLint at 1 µM: human, human liver microsomes, pH 7.4, Midazolam CLint
From the text: Liver S9 (lot 1810001, pool of 50, Xenotech) and HLM (pool of 50, lot 1810003, Xenotech) from the same pool of donors were purchased from Xenotech.

recombinant CYP3A4-POR = molecular target: T3, recombinant CYP3A4-POR (Homo sapiens, UniProt P08684); experiment: Savolitinib incubation with recombinant CYP3A4-POR Supersomes; type: in vitro ADME; conditions: CYP3A4 (CYP13A4 [sic]), savolitinib 1 µM, 1 h (Fig. 2c)
T3 construct: purchased 456202
T3 sequence (P08684 whole entry): as above
Method: For detailed comparisons between recombinant CYP1A2 and CYP3A4 (Fig. 2B, C), Supersomes were used (CYP1A2, catalogue number 456203, CYP3A4, catalogue number 456202). […] The concentration of savolitinib metabolites M2 and M4 formed were determined from standard curves obtained by spiking the appropriate concentrations of M2 and M4 into recombinant enzymes (in the absence of NADPH) and processing in the same way as the samples.

[11] = Savolitinib metabolite (M2, M4) formation in NADPH-HLM (with BSA or cytosol where stated); type: in vitro ADME, human; design: [M4] / M2 average / M4 average: unit not given here; conditions: 60min; for M4 average: average of duplicate (Suppl. Fig. 1); for [M4]: savolitinib 1 µM, single measurements (Suppl. Fig. 1)
[12] = Metabolism of savolitinib in lysed hepatocytes + NADPH; type: in vitro ADME, human; conditions: savolitinib 1 µM, HH lysate + NADPH
Method: HH in Leibovitz buffer were centrifuged at 11,250 × g for 5 min to pellet the cells. Taking care not to disturb the pellet, all the media was removed using a pipette. Ice-cold water was added and the mixture vortex-mixed to resuspend the cells and stored at −80 °C for 5 min followed by sonication for 10 min to lyse the cells. The resuspended lysate final volume was equivalent to a final cell concentration of 1 million cells/mL (the same concentration used for intact cells experiments) in […] phosphate buffer pH 7.4 and NADPH (final 1 mM). After pre-incubating for 5 min at 37 °C, the reaction (metabolism of savolitinib) in the lysate was initiated by adding savolitinib (final 1 µM). […] Authentic standards (M2 and M4) were spiked into hepatocyte lysate and used to construct standard curves. The acetonitrile/hepatocyte lysate mixtures were centrifuged at 3000 × g for 10 min and 50 µl of the supernatant was mixed with 300 µl of water and 3 µL was injected into the mass spectrometer for analysis by multiple reaction monitoring.

[13] = HLM (same donors as S9) + NADPH + 5 uM GEF (Fig. 6b)
[14] = HLM (same donors as S9) + NADPH, midazolam 1 µM alone (Fig. 6b)

For `Cc1ncc2n1-c1ccc(Cl)cc1C(c1ccccc1F)=NC2` [Midazolam], the Papp (in vitro [1]) was 47.5 ×10⁻⁶ cm/s, the “Midazolam CLint” value ([2]; Mid + GEF 5 µM (Fig. 5e)) was 3292.07 µL/min/nmol and 3281.83 µL/min/nmol and 2734.43 µL/min/nmol and the “Midazolam CLint” value ([2]; Mid alone (Fig. 5e)) was 4061.76 µL/min/nmol and 4262.77 µL/min/nmol and 3511.63 µL/min/nmol. For the same compound, the “NADPH_HLM_scaled_CLint,u” value ([3]; Fig. 4a,d) was 614.71 mL/min/kg, the “Midazolam CLint” value ([3]; HLM + NADPH, control without gefitinib (Fig. 3d)) was 265.8 µL/min/mg and 269.7 µL/min/mg and the “Midazolam scaled CLint,u” value ([3]; HLM + NADPH, no gefitinib (Fig. 3a)) was 531.926 mL/min/kg and 593.803 mL/min/kg. The “Scaled midazolam CLint,u” value ([3]; HLM, cofactor NADPH (Fig. 5b)) was 703.964 mL/min/kg and 722.238 mL/min/kg, the “Scaled HLM CLint,u” value ([3]; NADPH-HLM, individual determinations 1-3, Fig. 1) was 632.553 mL/min/kg and 670.23 mL/min/kg and the microsomal CLint at 1 µM ([3]; pH 7.4, HLM_NADPH CLint, 1 µM, single determination, Fig. 4a,d) was 295 µL/min/mg. For the same compound, the microsomal CLint at 1 µM ([3]; pH 7.4, Midazolam CLint, HLM + NADPH, control without gefitinib (Fig. 3d)) was 288 µL/min/mg, the CLint scaled at 1 µM ([3]; pH 7.4, Midazolam scaled CLint,u, HLM + NADPH, no gefitinib (Fig. 3a)) was 619 mL/min/kg and the CLint scaled at 1 µM ([3]; pH 7.4, Scaled HLM CLint,u average, NADPH-HLM, average, Fig. 1) was 649 mL/min/kg. The CLint scaled at 1 µM ([3]; pH 7.4, Scaled HLM CLint,u, NADPH-HLM, individual determinations 1-3, Fig. 1) was 643 mL/min/kg, the CLint scaled at 1 µM ([3]; pH 7.4, Scaled midazolam CLint,u, HLM, cofactor NADPH (Fig. 5b)) was 693 mL/min/kg and the “Midazolam CLint” value ([4]; Mid + GEF 5 µM (Fig. 5f)) was 19.6 µL/min/nmol and 13.9 µL/min/nmol and 18.8 µL/min/nmol. For the same compound, the “Midazolam CLint” value ([4]; Mid alone (Fig. 5f)) was 6.9 µL/min/nmol and 5.5 µL/min/nmol and 5.1 µL/min/nmol, the “Midazolam CLint” value ([5]; HLM + NADH, control without gefitinib (Fig. 3d)) was 23.9 µL/min/mg and 21.4 µL/min/mg and the “Scaled midazolam CLint,u” value ([5]; HLM, cofactor NADH (Fig. 5b)) was 248.867 mL/min/kg and 261.398 mL/min/kg. The microsomal CLint at 1 µM ([5]; pH 7.4, HLM_NADH CLint, 1 µM, single determination, Fig. 4a,d) was 103 µL/min/mg, the microsomal CLint at 1 µM ([5]; pH 7.4, Midazolam CLint, HLM + NADH, control without gefitinib (Fig. 3d)) was 14.7 µL/min/mg and the CLint scaled at 1 µM ([5]; pH 7.4, NADH_HLM_scaled_CLint,u, Fig. 4a,d) was 213 mL/min/kg. It also gave a CLint scaled at 1 µM ([5]; pH 7.4, Scaled midazolam CLint,u, HLM, cofactor NADH (Fig. 5b)) of 247 mL/min/kg, a microsomal CLint at 1 µM ([6]; S9 + NADPH + 5 uM GEF (Fig. 6b)) of 150 µL/min/mg and a microsomal CLint at 1 µM ([6]; S9 + NADPH, midazolam 1 µM alone (Fig. 6b)) of 77.2 µL/min/mg. For the same compound, the fu_HLM [7] was 0.454, the “Scaled midazolam CLint,u” value [8] was 761.569 mL/min/kg and 740.511 mL/min/kg and the CLint scaled at 1 µM ([8]; human, human liver microsomes, pH 7.4, Scaled midazolam CLint,u) was 762 mL/min/kg. The fu_ratHH (rat hepatocytes) was 0.543, the CLint scaled (in vitro [9]; HH_scaled_CLint,u) was 90.5 mL/min/kg and the CLint scaled (in vitro [9]; Midazolam scaled CLint,u) was 104 mL/min/kg. For the same compound, the CLint scaled (in vitro [9]; Scaled HH CLint,u) was 62.8 mL/min/kg, the CLint scaled (in vitro [9]; Scaled HH CLint,u average) was 51.2 mL/min/kg and the “Midazolam CLint” value [10, 13] was 392.5 µL/min/mg and 377.3 µL/min/mg. For the same compound, the “Percentage of midazolam alone” value [10, 13] was 121.498% and 119.228% and 122.262%, the “Midazolam CLint” value [10, 14] was 329.2 µL/min/mg and the microsomal CLint at 1 µM [10, 13] was 336 µL/min/mg. The microsomal CLint at 1 µM [10, 14] was 276 µL/min/mg.

In the case of `C[C@@H](c1ccc(N)nc1)n1nnc2ncc(-c3cnn(C)c3)nc21` [Compound M4], the “[M4] nM formed by recombinant CYPs” value (recombinant CYP3A4-POR) is reported as 208.8 nM and 197.55 nM and 216.7 nM, the M4 average ([11]; cytosol 0 mg/mL) is reported as 45.7 and 50.45 and 48.25 and the M4 average ([11]; cytosol 4 mg/mL) is reported as 17.35 and 19.85 and 21.35. For the same compound, the M4 average ([11]; cytosol 10 mg/mL) was 7.4 and 8.2 and 10.05, the [M4] ([11]; cytosol 0 mg/mL) was 45.1 and 46.3 and 50.7 and 50.2 and 47.8 and 48.7 and the [M4] ([11]; cytosol 4 mg/mL) was 17.9 and 16.8 and 19.5 and 20.2 and 21.9 and 20.8. For the same compound, the [M4] ([11]; cytosol 10 mg/mL) was 7.5 and 7.3 and 8.2 and 10.2 and 9.9, the “[M4]” value ([12]; 0 min (Fig. 6cii)) was 2.8 nM and 3 nM and 2.75 nM and the “[M4]” value ([12]; 5 min (Fig. 6cii)) was 3.1 nM and 3.9 nM and 3.3 nM. The “[M4]” value ([12]; 10 min (Fig. 6cii)) was 4.2 nM and 5.25 nM and 4 nM, the “[M4]” value ([12]; 20 min (Fig. 6cii)) was 4.6 nM and 6.95 nM and 4.95 nM and the “[M4]” value ([12]; 40 min (Fig. 6cii)) was 6.1 nM and 9.2 nM and 6.8 nM. For the same compound, the “[M4]” value ([12]; 60 min (Fig. 6cii)) was 7.5 nM and 10.55 nM and 8.1 nM and the “[M4]” value ([10]; HLM (same donors as S9) + NADPH, savolitinib 1 µM, 1 h (Fig. 6aii)) was 59.25 nM and 71.3 nM and 48.9 nM.
